These results are taken from patent publication US5589568A (priority 1994, dated 1996).

pEC50: −log10 of the molar value. Where a SMILES comes first, the peptide text is derived from it. The star is where a group is joined. X1 = CCCCCCCCCCCCCCCC*

The subject of series [1] is Gi. The experiment in a line: steady state GTPase activity of Gi in phospholipid vesicles.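 On all read-outs here: Steady-state GTP hydrolysis by Gi measured in a detergent-free buffer containing 1.1 mM MgSO4 plus the specified guanine nucleotide.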 As to conditions: for G1 ef. (apparent efficacy, maximum turnover number of GTPase activity) / pEC50: Table IV; for pEC50: read-out: G1 af. (apparent affinity, estimated by EC50 of GTPase activity). It counts as biochemical, rabbit.
Description: The concentration of free Mg^2+ in assay medium that contains 5 mM EDTA and no added Mg^2+ is estimated to be 0.1-0.2 nM according to Brandt et al., 1988 and 1983.
Another series deals with Gs (Homo sapiens, UniProt P63092). Kind of series: steady state GTPase activity of Gs. As to conditions: Table IV. The format is biochemical. The protocol:
Methods for the assay of steady state GTP hydrolysis and GTPγS binding have been described previously by Higashijima, 1987, and Ferguson, 1986, and incorporated herein by reference. Unless noted otherwise, assays of steady state GTP hydrolysis and of the binding and dissociation of guanine nucleotides were carried out in the buffer described previously, but without detergent and with 1.1 mM MgSO4 and the nucleotide specified in the text. When necessary, the concentration of free Mg^2+ was adjusted using EDTA buffers as described previously by Higashijima, 1987, and incorporated herein by reference.
The data set forth in the following tables represent data generated by the inventors employing the steady state GTP hydrolysis, expressed as molar turnover numbers, are described herein under the "Assay" section of the Experimental Procedures in Example 1. The data has been classified according to the criteria outlined below and the effects of each peptide and modified variant on Go, Gi, and Gs have been tabulated. Table III below sets forth data generated for various mastoparan analogues designed by the inventors, in comparison with the various naturally-occurring mastoparans (e.g., MP, MP-A and MP-T). Table IV sets forth similar data generated for various receptor-based peptides designed by the inventors based on a consideration of various G-protein linked receptors.
Apparent affinity (af.) and apparent efficacy (ef.) were estimated by EC50 and maximum turnover number of GTPase activity.

For series [2], the target named is T1, Go (Bos taurus, UniProt P08239).
T1 construct: proteins were extracted from bovine cerebral cortical membranes; from tissue; host or cells: bovine brain (cerebral cortical membranes)
Kind of series: steady state GTPase activity of Go in phospholipid vesicles. It counts as biochemical, bovine. The settings on record: for Goo ef. (apparent efficacy, maximum turnover number of GTPase activity): Table IV.

Series [3] has as its target T1, Go. Kind of series: rate of hydrolysis of protein-bound [γ-32P]GTP. It counts as biochemical, bovine. On the procedure:
The rate of hydrolysis of protein-bound [γ^32 P]GTP was measured essentially as described previously (Higashijima, 1987) at 20° C. in assay medium that contained 2 ppm Lubrol 12A9. Go (10 nM) was incubated in assay medium for 16 min with 100 nM [γ-^32 P]GTP to allow nucleotide to bind. Hydrolysis was initiated by the addition of 1.3 mM MgSO4. Excess unlabeled GTP was also added such that only a single turnover was measured. The production of [^32 P]Pi was measured as described by Higashijima, 1987.

Series [4] has as its system muscarinic cholinergic receptor. The format is binding, porcine.
Series [5] has as its system Gi. The experiment in a line: release of [α-32P]GDP from Gi (GDP exchange). It counts as biochemical, rabbit. The protocol:
FIG. 1. Stimulation of GDP/GTP exchange by analogs of MP. The release of [α-^32 P]GDP from Gi was measured at 30° C. in the presence of the concentrations of several different MP analogs whose structures are listed in Table I: O, Mas7; Δ, Mas8; .tangle-solidup.Mas9; .quadrature., Mas19; .oval-solid., MP; .box-solid., MP-X; .gradient., MAS14; .tangle-soliddn., Mas6. First order dissociation rate constants (kdiss) were determined from duplicate four-point time courses as described under "Experimental Procedures."
Purification of αo and βγ was completed by chromatography on DEAE-Sephacel that was eluted with a gradient of 0-250 mM NaCl in the presence of 0.6% Lubrol and AMF. AMF was removed by chromatography on hydroxyapatite and Sephadex G-25 as described by Sternweis, et al., 1981, incorporated herein by reference. Gi was purified as the αβγ trimer from rabbit liver as reported by Bokoch, et al., 1984, incorporated herein by reference. The Gi used in this study could be recognized on a Western blot by anti-Gi -1 and anti-Gi -3 antibodies but not by anti-Gi -2 antibody, as documented by Mumby, et al., 1983, incorporated herein by reference. Purified recombinant αi,1 was synthesized in E. coli prepared to the specifications of Linder, incorporated herein by reference. During purification, G protein α subunits were assayed by [^35 S] GTPγ S binding according to the method of Higashijima, 1987, incorporated herein by reference). By subunits were assayed according to their ability to deactivate Gs, as detailed by Northup, 1983, incorporated herein by reference.
G proteins were reconstituted into phospholipid vesicles composed of dioleoyl-PC/bovine brain PS/1-palmitoyl,2-oleoyl-PE (3:4:3) as reported previously by Higashijima et al., 1988, incorporated herein by reference.
To measure the MP-catalyzed dissociation of [α-^32 P]GDP or [^35 S]-GTPγS, labeled nucleotide was first bound to G protein (approximately […] in 50 μl) by incubation of the Lubrol-solubilized G protein with a molar excess of nucleotide in assay buffer that contained 10 mM MgSO4 and 0.1% Lubrol. Incubation was for 20 min at 20° C. (for Go) or for 30 min at 30° C. (for Gi), In the case of [α-^32 P]GDP, EDTA was then added to 12 mM. […] Bound nucleotide was determined by binding to nitrocellulose filters as described (Ferguson, 1986), and incorporated herein by reference. […] Data were analyzed using a nonlinear least squares fitting program.

A short description of series [6]: circular dichroism, fractional helical content. The format is physicochemical. As to conditions: 20 μM peptide, pH 7.5, 25° C. On the procedure: CD spectra of peptides were measured using an Aviv model 60DS spectrometer at 25° C. in 1-mm pathlength cells. Spectra were scanned at 1 nm intervals for 3 s, and three scans were averaged. Peptides were dissolved at 20 μM in 5 mM Tris-Cl, pH 7.5, in the presence or absence of sonicated 1 mM 1-palmitoyl,2-oleoylphosphatidylcholine. Fractional helical content for each peptide was calculated according to the assumption that, for 100% helix and 14 peptide bonds, θ222 =36,000 (1-2.6/14).
Fractional helical contents of some of the peptides
For orientation: Circular dichroism is the unequal absorption of left and right circularly polarised light.

A short description of series [7]: critical micelle concentration. The format is physicochemical. From the text: MP was synthesized and purified as described by Saito and his colleagues (Chem. Pharm. Bull., 32:2187-2193, 1984, incorporated herein by reference). The MP analogs listed in Table I were synthesized by standard solid phase methods and purified by C-4 HPLC using an acetonitrile gradient in 0.1% trifluoroacetic acid. […] The identity of the peptides was monitored by 400-MHz or 250-Mhz ^1 H NMR spectroscopy for MP and MP-X and by mass spectroscopy for the other analogs. […] BAC was purchased from Sigma, and other alkylammonium compounds were from Aldrich. The critical micelle concentration of BAC was measured in the buffer used for GTPase assays (see below) using 1,6-diphenyl-1,3,5-hexatriene according to the method of Schrock and Gennis, (J. Biol. Chem, 252:5990-5995, 1977, incorporated herein by reference). The critical micelle concentration was approximately 20 μM.

T1 sequence (P08239 2-354 limits assumed): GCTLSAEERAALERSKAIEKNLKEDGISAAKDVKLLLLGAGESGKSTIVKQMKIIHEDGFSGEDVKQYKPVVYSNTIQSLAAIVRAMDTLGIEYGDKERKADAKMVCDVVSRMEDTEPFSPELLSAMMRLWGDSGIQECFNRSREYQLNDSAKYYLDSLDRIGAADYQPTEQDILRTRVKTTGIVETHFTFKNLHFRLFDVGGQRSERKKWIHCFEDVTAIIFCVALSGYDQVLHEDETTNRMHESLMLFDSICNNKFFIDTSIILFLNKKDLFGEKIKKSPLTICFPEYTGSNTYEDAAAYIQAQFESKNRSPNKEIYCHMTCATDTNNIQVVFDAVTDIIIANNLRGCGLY
T1 sequence (P62871 2-340 partner limits assumed): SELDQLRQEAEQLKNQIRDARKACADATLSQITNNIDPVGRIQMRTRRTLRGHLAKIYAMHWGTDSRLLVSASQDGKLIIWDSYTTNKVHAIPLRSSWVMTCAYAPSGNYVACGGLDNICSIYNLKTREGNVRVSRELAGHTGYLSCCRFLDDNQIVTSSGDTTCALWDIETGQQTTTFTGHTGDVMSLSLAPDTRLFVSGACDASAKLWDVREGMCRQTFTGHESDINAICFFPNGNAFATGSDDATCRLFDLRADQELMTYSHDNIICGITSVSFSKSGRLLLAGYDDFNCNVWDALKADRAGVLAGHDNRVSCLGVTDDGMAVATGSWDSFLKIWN
T1 sequence (P63212 2-68 partner limits assumed): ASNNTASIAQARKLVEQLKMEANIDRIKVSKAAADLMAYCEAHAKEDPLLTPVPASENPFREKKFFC
Chain of Gs (P63092 whole entry): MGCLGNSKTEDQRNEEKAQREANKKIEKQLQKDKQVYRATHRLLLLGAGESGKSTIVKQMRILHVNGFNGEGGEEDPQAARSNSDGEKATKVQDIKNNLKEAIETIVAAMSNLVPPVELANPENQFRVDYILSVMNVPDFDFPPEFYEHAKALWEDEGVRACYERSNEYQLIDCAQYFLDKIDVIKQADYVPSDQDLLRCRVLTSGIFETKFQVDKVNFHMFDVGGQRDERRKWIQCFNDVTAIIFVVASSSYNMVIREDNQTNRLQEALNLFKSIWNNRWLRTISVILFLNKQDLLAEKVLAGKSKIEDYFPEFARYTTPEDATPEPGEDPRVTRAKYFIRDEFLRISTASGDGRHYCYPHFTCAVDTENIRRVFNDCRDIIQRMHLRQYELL

As to `CC[C@H](C)[C@H](NC(=O)[C@H](CCCNC(=N)N)NC(=O)[C@H](Cc1ccc(O)cc1)NC(=O)[C@H](CC(C)C)NC(=O)[C@H](CC(C)C)NC(=O)[C@H](CC(C)C)NC(=O)[C@@H](NC(=O)[C@H](CC(C)C)NC(=O)[C@@H](NC(=O)[C@H](CC(C)C)NC(=O)[C@H](CC(C)C)NC(=O)[C@@H](NC(=O)[C@H](C)NC(=O)[C@@H](NC(=O)[C@H](CC(C)C)NC(C)=O)[C@@H](C)O)C(C)C)[C@@H](C)O)[C@@H](C)O)C(=O)N[C@@H](CC(N)=O)C(=O)N[C@@H](CC(C)C)C(=O)N[C@@H](CCCCN)C(=O)N[C@@H](C)C(=O)N[C@@H](CC(C)C)C(=O)N[C@@H](C)C(=O)N[C@@H](C)C(=O)N[C@@H](CC(C)C)C(=O)N[C@@H](C)C(=O)N[C@@H](CCCCN)C(=O)N[C@@H](C)C(=O)N[C@@H](CC(C)C)C(=O)N[C@@H](CC(C)C)C(N)=O` [ER26], in the series on Gi [1], the “G1 ef. (apparent efficacy, maximum turnover number of GTPase activity)” value is listed as “G (Good (G): 5-10 fold)” and the negative logarithm of the EC50 (pEC50) was 5.00 to 5.52. For the same molecule, the “Gs ef. (apparent efficacy, maximum turnover number of GTPase activity)” value on Gs was “F (Fair (F): 2-5 fold)”. Further, the “Goo ef. (apparent efficacy, maximum turnover number of GTPase activity)” value on Go [2] is recorded as “F (Fair (F): 2-5 fold)”.

In the case of `CC[C@H](C)[C@H](N)C(=O)N[C@@H](CC(N)=O)C(=O)N[C@@H](CC(C)C)C(=O)N[C@@H](CCCCN)C(=O)N[C@@H](C)C(=O)N[C@@H](CC(C)C)C(=O)N[C@@H](C)C(=O)N[C@@H](C)C(=O)N[C@@H](CC(C)C)C(=O)N[C@@H](C)C(=O)N[C@@H](CCCCN)C(=O)N[C@@H](CCCCN)C(=O)N[C@H](C(=O)N[C@@H](CC(C)C)C(N)=O)[C@@H](C)CC` [MP], in the series with Gi [1] (10 μM peptide, 30 min at 30° C., PE/PC/PS vesicles), the “GTPase Gi 10 μM” value came to 0.19 min⁻¹. Further, the “GTPase Gi 100 μM” value in the series with Gi [1] (100 μM peptide, 30 min at 30° C., PE/PC/PS vesicles) stood at 0.47 min⁻¹. In addition, the “stimulation of Gi” value was “about 15 fold” in the series on Gi [1] (GTPase assay, typical) and “about 15 fold” in the series on Gi [5] (GDP exchange assay, typical). The “G1 ef. (apparent efficacy, maximum turnover number of GTPase activity)” value in the series with Gi [1] was “E (Excellent (E): 30-10 fold)”. The negative logarithm of the EC50 (pEC50) is 4.52 to 5.00 on Gi [1]; 5.00 to 5.52 on Gs (read-out: Gs af. (apparent affinity, estimated by EC50 of GTPase activity)); 5.00 to 5.52 at Go [2]. Besides, the “Gs ef. (apparent efficacy, maximum turnover number of GTPase activity)” value at Gs was “F (Fair (F): 2-5 fold)”. Further, at Go [3], the “effect on rate of hydrolysis of bound GTP” value is on record as “did not alter”. For the same molecule, the “effect on affinity of the receptor for the antagonist [3H]QNB” value in series [4] was “did not alter”. The “effect on the receptor's affinity for acetylcholine” value in series [4] (30 μM peptide, […]) was “decreased the receptor's affinity for acetylcholine”. In addition, the “GTPase Go 10 μM” value at Go [2] (10 μM peptide, 15 min at 20° C., PE/PC/PS vesicles) turned out to be 0.59 min⁻¹. Moreover, on Go [2] (100 μM peptide, 15 min at 20° C., PE/PC/PS vesicles), the “GTPase Go 100 μM” value amounted to 0.95 min⁻¹. For the same molecule, the “Goo ef. (apparent efficacy, maximum turnover number of GTPase activity)” value on Go [2] is “E (Excellent (E): 30-10 fold)”. In series [6] (absence of 1 mM phospholipid), the “% α Helix - PC” value was found to be 19%. For the same molecule, the “% α Helix + PC” value in series [6] (presence of 1 mM phospholipid) is 61%.

Regarding `CCCCCCCCCCCCC[N+](C)(C)Cc1ccccc1` [BAC (C-12), benzalkonium chloride], in the series with Gi [1] (3 μg/ml BAC, 10 μM Mas7 (FIG. 3)), the “effect on stimulation of Gi GTPase activity by Mas7 and MP” value is reported as “antagonized”. Moreover, the “Turnover number Gi 10 μg/ml” value in the series on Gi [1] (10 μg/ml amine, 30 min at 30° C.) stood at 0.08 min⁻¹. In the series on Gi [1] (100 μg/ml amine, 30 min at 30° C.), the “Turnover number Gi 100 μg/ml” value was 0.04 min⁻¹. Besides, the critical micelle concentration in series [7] (as restated) is 20 µg/mL; in series [7] (buffer used for GTPase assays, 1,6-diphenyl-1,3,5-hexatriene), “approximately 20 μM”. The “Turnover number Go 10 μg/ml” value on Go [2] (10 μg/ml amine, 15 min at 20° C., PE/PC/PS vesicles) was 0.33 min⁻¹. In addition, at Go [2] (100 μg/ml amine, 15 min at 20° C.), the “Turnover number Go 100 μg/ml” value is 0.8 min⁻¹. Moreover, the “maximal stimulation of Go” value on Go [2] (at about 30 μg/ml (~0.1 mM) BAC, FIG. 5) came out at 20 fold. The “BAC concentration range in which the EC50 for Mas7 increased sharply” value in the series with Gi [5] (Gi, FIG. 4B) was 1 to 3 µg/mL. For the same molecule, the “inhibition of Mas7-stimulated GDP exchange on Gi” value with Gi [5] (intermediate concentrations of Mas7) is on record as at most 60%. In addition, the “effect on basal GDP exchange rate of Gi” value in the series on Gi [5] (no Mas7) is “no detectable inhibition”.

Take `CCCCCCCCCCCCCCCCSC[C@H](NC(=O)[C@H](CC(C)C)NC(=O)[C@H](C)NC(=O)[C@H](CCCCN)NC(=O)[C@H](C)NC(=O)[C@H](CC(C)C)NC(=O)[C@H](C)NC(=O)[C@H](C)NC(=O)[C@H](CC(C)C)NC(=O)[C@H](C)NC(=O)[C@H](CCCCN)NC(=O)[C@H](Cc1ccc(O)cc1)NC(=O)[C@H](CC(N)=O)NC(=O)[C@@H](N)[C@@H](C)CC)C(N)=O` [C16-ER17] (H-INYKALAALAKALC(X1)-NH2; N-terminus assumed): in the series on Gi [1], the “G1 ef. (apparent efficacy, maximum turnover number of GTPase activity)” value is on record as “E (Excellent (E): 30-10 fold)” and the negative logarithm of the EC50 (pEC50) was over 5.52. The “Gs ef. (apparent efficacy, maximum turnover number of GTPase activity)” value at Gs is “F (Fair (F): 2-5 fold)”. Further, the “Goo ef. (apparent efficacy, maximum turnover number of GTPase activity)” value at Go [2] is recorded as “E (Excellent (E): 30-10 fold)”.

One may read the pEC50 as the negative decadic logarithm of the EC50, by convention in mol/L.
